Assay results reported in paper PMC5607274, “An iterative compound screening contest method for identifying target protein inhibitors using the tyrosine-protein kinase Yes” (Scientific Reports, 2017).

Biological target: T1, human recombinant Yes [a.a. 2–543 (end)] (Homo sapiens, UniProt P07947)
T1 construct: human recombinant Yes [a.a; 2–543 (end)]; purchased BPS Bioscience 40488
Assay: ADP-Glo kinase assay, inhibition rates of Yes phosphorylation activity (first and second screening)
Assay type: biochemical
Settings: first screening; mean of n = 4 wells; 10 μmol L−1 compound
In short: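 ADP-Glo luminescence measured inhibition of human recombinant Yes (a.a. 2–543) phosphorylation activity. In the first screen, each compound ran in 4 wells and inhibition rates were averaged. The second screen retested hits as compounds dissolved from fresh powder.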

T1 sequence (P07947 2-543): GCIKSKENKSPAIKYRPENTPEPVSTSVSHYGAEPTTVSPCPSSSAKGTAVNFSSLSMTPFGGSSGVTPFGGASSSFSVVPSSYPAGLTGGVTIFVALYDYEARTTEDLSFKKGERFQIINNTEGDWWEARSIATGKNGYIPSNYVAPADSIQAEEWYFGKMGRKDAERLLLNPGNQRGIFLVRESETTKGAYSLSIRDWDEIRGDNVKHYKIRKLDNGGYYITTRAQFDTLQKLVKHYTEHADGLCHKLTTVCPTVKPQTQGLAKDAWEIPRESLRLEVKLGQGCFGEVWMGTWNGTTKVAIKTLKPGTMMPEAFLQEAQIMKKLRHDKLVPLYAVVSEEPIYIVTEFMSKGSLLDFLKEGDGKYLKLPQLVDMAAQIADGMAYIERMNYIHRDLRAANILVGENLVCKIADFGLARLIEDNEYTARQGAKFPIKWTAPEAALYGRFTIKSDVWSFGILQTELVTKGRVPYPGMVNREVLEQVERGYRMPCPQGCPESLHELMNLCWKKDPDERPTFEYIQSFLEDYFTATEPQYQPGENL

Compound | First screening IR (inhibition rate) [%]
Cc1cc(=O)n2c3ccccc3n(CC(O)CN3CCN(CCOc4ccc(Cl)cc4)CC3)c2c1C#N (stereo not drawn) [Compound Z57724322] | 7
O=C(COc1ccc(-c2cc(-c3ccccc3)c3cc(Cl)ccc3n2)cc1)NCCO [Compound Z57805545] | 39
OCCNc1nc2ccccc2n1-c1ncnc2sc3c(c12)CCCC3 [Compound Z57981090] | 7
Clc1ccc(Oc2cccc(-c3nc4c5ccccc5c5ccccc5c4[nH]3)c2)cc1 [Compound Z57984419] | 2
Cl.N#Cc1c(-c2ccc(Cl)cc2)nc2ccccc2c1-c1ccccc1 [Compound Z57989376] | 2
NNc1ncnc2c1cnn2Cc1ccccc1 [Compound Z58286928] | -12
C(=C\c1ccccc1)/CN1CCN(c2ncnc3c2cnn3Cc2ccccc2)CC1 [Compound Z58287009] | 0
Cc1cccnc1NC(=O)c1ccc(CSc2ccccc2)cc1 [Compound Z58490632] | -1
Cc1nn(C2CCS(=O)(=O)C2)c2nc(C3CC3)cc(C(=O)NCc3ccc4c(c3)OCO4)c12 (stereo not drawn) [Compound Z60362928] | 5
Cc1nn(C2CCS(=O)(=O)C2)c2nc(C3CC3)cc(C(=O)Nc3ccc(C(N)=O)cc3)c12 (stereo not drawn) [Compound Z60779201] | 17
COc1cc(NC(=O)c2ccccc2)c(OC)cc1NC(=O)COc1ccc(-c2nnco2)cc1 [Compound Z62746884] | 46
CN(CC(=O)NCc1ccco1)C(=O)/C=C/c1ccc(-n2ccnc2)cc1 [Compound Z62804747] | 2
CN(CC(=O)N1CCN(CC(=O)NC(C)(C)C)CC1)c1ncnc2cc(-c3ccc(F)cc3)sc12 [Compound Z64655268] | 6
CCN(c1ccc(-c2csc(Nc3ccc(OC)cc3)n2)cc1)S(C)(=O)=O [Compound Z64779311] | -4
Cn1cc(/C=N/Nc2ccnc3cc(Cl)ccc23)cn1 [Compound Z65478686] | 2
CCc1ccc(S(=O)(=O)N(CC)C2CCS(=O)(=O)C2)cc1 (stereo not drawn) [Compound Z65566827] | 2
CC(c1ccc(S(N)(=O)=O)cc1)N(C)S(=O)(=O)c1cc(Cl)cc(Cl)c1 (stereo not drawn) [Compound Z65599853] | 0
CC(C)(C)NC(=O)CN1CCN(C(=O)CSc2nc3ccccc3c(=O)n2-c2ccccc2)CC1 [Compound Z65695011] | 57
Cn1c(SCC(=O)N2c3ccccc3OCC2c2ccccc2)nnc1-c1ccncc1 (stereo not drawn) [Compound Z65769442] | -1
COc1ccc(-c2nnc(SCC(=O)N3c4ccccc4OCC3c3ccccc3)n2C)cc1 (stereo not drawn) [Compound Z65980497] | -3
O=C(Nc1nc2c(s1)CN(Cc1ccccc1)CC2)c1cc2c(nc3sccn32)s1 [Compound Z68435865] | -4
COc1ccc(-c2cc(NC(=O)C3CCC(=O)N3)ccc2OC(F)F)cc1 (stereo not drawn) [Compound Z70775126] | -6
Cc1ccc(S(=O)(=O)N(C)c2ccc(OCC(=O)Nc3ccc4oc(C)nc4c3)cc2)cc1 [Compound Z70909087] | 17

Compound | First screening IR (inhibition rate) [%]
CCCOc1ccc(OCC(=O)Nc2ccc3oc(C)nc3c2)cc1 [Compound Z70909650] | 11
CCN(CC)c1ccc([N+](=O)[O-])cc1C(=O)Nc1ccc2nc(N3CCOCC3)sc2c1 [Compound Z70970124] | 9
COc1ccc(CCN2CC(C(=O)Nc3c(-c4ccccc4)nc4ccc(C)cn34)CC2=O)cc1OC (stereo not drawn) [Compound Z70997275] | -15
Cc1cc(C)c(C)c(S(=O)(=O)N(C)C2CCS(=O)(=O)C2)c1C (stereo not drawn) [Compound Z71311814] | 1
CN(C1CCS(=O)(=O)C1)S(=O)(=O)c1ccc(Cl)c(Cl)c1 (stereo not drawn) [Compound Z71311982] | -2
O=C(NCCOc1ccc(Cl)cc1)c1ccc2nc[nH]c2c1 [Compound Z73381327] | 12
CC(C)n1ncc2c(C(=O)N3CCN(CC(=O)N4CCOCC4)CC3)cc(-c3ccccc3)nc21 [Compound Z73457343] | 7
CC(C)(C)C(=O)NCc1ccc(C(=O)COC(=O)c2cc3c(s2)CCC3)s1 [Compound Z73973253] | 9
COc1ccc(S(=O)(=O)N(C)Cc2ccc3c(c2)OCO3)cc1Br [Compound Z74745150] | -25
CCOC(=O)c1cnc(SCC(=O)OC/C(O)=C(\C#N)c2nc3ccccc3[nH]2)nc1N [Compound Z76798588] | 5
CC1CCc2c(sc3nc4c(c(-c5ccco5)c23)-c2ccccc2CC4)C1.Cl (stereo not drawn) [Compound Z76887050] | 8
Cc1cc(/C=C/C(=O)N2CCOCC2)c(C)n1-c1ccnn1C(C)C [Compound Z79434439] | 15
Cc1noc(C)c1CC(=O)NN=C(c1ccccc1)c1ccccc1 [Compound Z79575803] | -9
CCN(CC)CCNC(=O)c1ccc(NC(=O)C2CCN(c3ncnc4sc(C)c(C)c34)CC2)cc1 [Compound Z79604730] | -1
Cc1ccc(-c2csc3ncn(CC(=O)N4CCN(CC(=O)NC(C)(C)C)CC4)c(=O)c23)cc1C [Compound Z81619452] | -8
NS(=O)(=O)c1ccc2nc(-c3ccc4c(c3)-c3ccccc3C4)cn2c1 [Compound Z82176567] | 27
CCCCOc1ccc(C(=O)NCC(=O)NCC(c2cccs2)N2CCOCC2)cc1 (stereo not drawn) [Compound Z84671779] | 6
CCN1CCC(NC(=O)C2CCN(S(=O)(=O)c3c(C)c(C)cc(C)c3C)CC2)CC1 [Compound Z85145044] | 6
CCCCN(S(C)(=O)=O)S(=O)(=O)c1ccc(OC)cc1 [Compound Z85927834] | 1
Cc1ccc(Nc2ncnc3sc4c(c23)CCCC4)c(O)c1 [Compound Z85929120] | 2
O=C(COC(=O)c1ccco1)Nc1nc2ccc([N+](=O)[O-])cc2s1 [Compound Z85929771] | 10
COc1ccc(-c2cc3c4ccccc4oc4nc(=N)c(C#N)c([nH]2)c43)cc1 [Compound Z85934217] | 5
O=C(Cn1c(CN2CCOCC2)nc2sc3c(c2c1=O)CCCC3)Nc1ccc(OCc2ccccc2)cc1 [Compound Z86108588] | 16

Compound | First screening IR (inhibition rate) [%]
CC(NC(=O)Nc1ccc(F)cc1F)c1ccc(-n2cncn2)cc1 (stereo not drawn) [Compound Z86212654] | -3
CS(=O)(=O)c1ccc(Cl)c(S(C)(=O)=O)c1 [Compound Z87002147] | 0
O=C(Nc1nc(-c2ccccc2)cs1)c1cc2ccccc2s1 [Compound Z87524039] | 20
O=C(NCC1(N2CCCCC2)CCCCC1)c1ccc(S(=O)(=O)NC2CC2)cc1 [Compound Z87649109] | -3
CC(NC(=O)c1ccc(-n2cnc3ccccc32)cc1)c1ccc(S(N)(=O)=O)cc1 (stereo not drawn) [Compound Z87656555] | -5
O=C(NCC(c1ccccc1Cl)N1CCCC1)C1CCN(C(=O)c2cccs2)CC1 (stereo not drawn) [Compound Z87671607] | -35
N#Cc1ccccc1CSCCNC(=O)c1ccc2nc[nH]c2c1 [Compound Z88237436] | -1
O=C(c1cccnc1N1CCCC1)N1CCN(C(=O)C2COc3ccccc3O2)CC1 (stereo not drawn) [Compound Z88468962] | -8
CC(NCc1ccc(C(=O)Nc2ccccc2)cc1)c1ccc2c(c1)OCCO2 (stereo not drawn) [Compound Z89008298] | -38
O=S(=O)(c1ccc(Br)cc1Cl)N1CCN(Cc2cn3ccccc3n2)CC1 [Compound Z89065969] | -1
N#Cc1ccc(CN2CCN(Cc3c(-c4ccccc4)nc4sccn34)CC2)cc1 [Compound Z89137945] | -31
O=S(=O)(c1ccccc1Cl)N1CCN(Cc2cn3ccccc3n2)CC1 [Compound Z89155296] | 15
C=CCN(CC(=O)Nc1ccc(S(=O)(=O)N(CC)CC)cc1)Cc1cccs1 [Compound Z89203975] | 16
COc1ccc(CN2CCN(Cc3c(-c4ccccc4)nc4ccccn34)CC2)cc1OC [Compound Z89207636] | 45
Cc1ccc(-c2c(C)sc3nc(CN4CCN(CC(=O)N5CCOCC5)CC4)[nH]c(=O)c23)cc1 [Compound Z89215884] | 5
COc1ccc(S(=O)(=O)N(C)C2CCS(=O)(=O)C2)cc1 (stereo not drawn) [Compound Z89320750] | 2
Cc1ccc(S(=O)(=O)N(C)C2CCS(=O)(=O)C2)cc1C (stereo not drawn) [Compound Z89320796] | 2
CN(C1CCS(=O)(=O)C1)S(=O)(=O)c1cc(Cl)cc(Cl)c1 (stereo not drawn) [Compound Z89320874] | 17
CCc1ccc(S(=O)(=O)N(C)C2CCS(=O)(=O)C2)cc1 (stereo not drawn) [Compound Z89320983] | 10
CCN(C1CCS(=O)(=O)C1)S(=O)(=O)c1cc(Br)ccc1C (stereo not drawn) [Compound Z89358343] | 1
CC1Cc2cc(C(=O)NC3(C)CCS(=O)(=O)C3)ccc2N1S(C)(=O)=O (stereo not drawn) [Compound Z89460412] | 10
Cc1oc(-n2cccc2)c(C#N)c1C(=O)Nc1cccc(/C=C/c2ccccn2)c1 [Compound Z89489183] | 9
Cc1noc(C)c1COc1ccccc1C(=O)NCCSc1ccc(Cl)cc1 [Compound Z89513568] | 17
